From PMC6402343 (ACS chemical biology, 2019)

Experiments:
RhlR [1] = target: T1, RhlR (Pseudomonas aeruginosa, UniProt P54292); test: E. coli RhlR reporter; assay type: cell-based; details: E. coli RhlR reporter strain; for EC50: dose-response; for Max. RhlR Activation: efficacy
RhlR [2] = target: T1, RhlR; test: P. aeruginosa PAO-JP2 RhlR reporter; assay type: cell-based; details: for EC50 / Max. RhlR Activation: P. aeruginosa RhlR reporter strain; for EC50: dose-response; for Max. RhlR Activation: efficacy

T1 sequence (P54292 whole entry): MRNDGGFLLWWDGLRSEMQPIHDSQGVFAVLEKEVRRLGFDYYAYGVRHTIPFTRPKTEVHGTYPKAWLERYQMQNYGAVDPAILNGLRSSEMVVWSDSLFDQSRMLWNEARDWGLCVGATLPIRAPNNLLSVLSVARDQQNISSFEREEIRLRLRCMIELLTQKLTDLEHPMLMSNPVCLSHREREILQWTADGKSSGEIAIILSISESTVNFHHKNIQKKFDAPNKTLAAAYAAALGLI

| SMILES | EC50 (RhlR [1]) | Max. RhlR Activation (RhlR [1]) | EC50 (RhlR [2]) | Max. RhlR Activation (RhlR [2]) | fold lower potency in P. aeruginosa relative to E. coli (RhlR [2]; ratio of EC50 values in the two RhlR reporters) |
| --- | --- | --- | --- | --- | --- |
| CCCC(=O)N[C@H]1CCOC1=O [BHL, N-butyryl HL] | 8.95 µM | 100% | 8.08 µM | 100% | – |
| CC(C)CC(=O)N[C@H]1CCOC1=O [Compound 7, isovaleryl HL] | 1.02 µM | 110% | 1.42 µM | 94% | – |
| O=C(NC1CCOC1=O)C1CCC1 (centres unmarked) [Compound 17, cyclobutyl HL] | 1.78 µM | 100% | 1.41 µM | 96% | – |
| CC(C)CC(=O)NC1CCSC1=O (centres unmarked) [Compound 37, isovaryl homocysteine thiolactone] | 0.463 µM | 93% | 2.58 µM | 91% | ~ 5 fold |
